Paper PMC6212834 (Nucleic Acids Research, 2018)

Biological target: T1, Csx1 (SisCsx1, SiCsx1) (Saccharolobus islandicus, UniProt F0NE21)
T1 sequence (F0NE21 1-454): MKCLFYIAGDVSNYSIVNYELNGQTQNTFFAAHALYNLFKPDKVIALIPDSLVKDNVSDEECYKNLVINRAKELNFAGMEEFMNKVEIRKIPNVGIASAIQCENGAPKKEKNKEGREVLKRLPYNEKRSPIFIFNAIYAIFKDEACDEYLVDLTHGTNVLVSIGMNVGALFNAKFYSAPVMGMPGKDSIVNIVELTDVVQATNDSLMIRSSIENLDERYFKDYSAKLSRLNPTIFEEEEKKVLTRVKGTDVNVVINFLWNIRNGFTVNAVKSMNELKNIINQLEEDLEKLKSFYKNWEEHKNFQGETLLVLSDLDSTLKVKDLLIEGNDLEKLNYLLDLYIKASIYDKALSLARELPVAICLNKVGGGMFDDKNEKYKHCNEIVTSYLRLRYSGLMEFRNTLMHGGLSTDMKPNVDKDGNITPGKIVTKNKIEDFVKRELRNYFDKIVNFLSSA
Assay: RNA
Type: biochemical

## Nc1ncnc2c1ncn2[C@@H]1O[C@@H]2COP(=O)(O)O[C@H]3[C@@H](O)[C@H](n4cnc5c(N)ncnc54)O[C@@H]3COP(=O)(O)O[C@H]3[C@@H](O)[C@H](n4cnc5c(N)ncnc54)O[C@@H]3COP(=O)(O)O[C@H]3[C@@H](O)[C@H](n4cnc5c(N)ncnc54)O[C@@H]3COP(=O)(O)O[C@H]2[C@H]1O [c-A4]
  EC50: 7.4 nM
